Test results as given in PubChem BioAssay (NCI).
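48-hour exposure; five concentrations; linearly interpolated endpoints. TGI: concentration producing complete growth inhibition.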

Experiments:
Experiment in all cases: growth of human tumour cells (NCI), 48 h
[1] = system: A549 NSCLC
[2] = system: CAKI-1 renal
[3] = system: HOP-62 NSCLC
[4] = system: MDA-MB-435
[5] = system: OVCAR-3 ovarian
[6] = system: OVCAR-8 ovarian
[7] = system: RXF 393 renal
[8] = system: SF-295 CNS
[9] = system: SK-MEL-28 melanoma
[10] = system: UACC-62 melanoma

Compound | TGI [1] [µM] | TGI [2] [µM] | TGI [3] [µM] | TGI [4] [µM] | TGI [5] [µM] | TGI [6] [µM] | TGI [7] [µM] | TGI [8] [µM] | TGI [9] [µM] | TGI [10] [µM]
COc1cc(/C=C/C(=N\NS(=O)(=O)c2ccc(C)cc2)c2sc(NNC(C)=O)nc2C)ccc1O | > 100 | > 100 | > 100 | > 100 | > 100 | > 100 | > 100 | > 100 | > 100 | > 100
Cc1cccc(/C=N/NC(=S)Nc2ccccc2)n1 | > 100 | > 42.3 | 17.8 | > 100 | 13.6 | 8.92 | 28.1 | > 100 | > 100 | 12.5
CCC1(O)CC2CC(=O)OC2C1O (stereo not given) | > 100 | > 100 | > 100 | > 100 | > 100 | > 100 | > 100 | > 100 | > 100 | > 100
COc1c(C)c(C/C=C(\C)CCCCO[Si](c2ccccc2)(c2ccccc2)C(C)(C)C)c(OC)c(OC)c1OC | 51 | 48.1 | > 46.4 | > 46.4 | > 46.4 | 35.6 | > 100 | > 46.4 | > 100 | > 46.4
COc1cc(/C=C2\S/C(=N/Nc3nc(-c4ccc(Br)cc4)cs3)NC2=O)cc(OC)c1OC | 56.7 | 46.6 | 30.3 | 46.3 | 30.3 | 29.6 | 19.4 | 36.6 | 99.1 | 25.4
COc1ccc(N2C(=O)C3c4[nH]c5ccccc5c4C4CCC(C(C)(C)C)CC4C3C2=O)c(C)c1 (stereo not given) | > 100 | > 100 | > 100 | > 100 | > 100 | > 100 | > 100 | > 100 | > 100 | > 100
C=C(Br)C(C)(Cl)CCC(Br)C(C)(C)Cl (stereo not given) | > 100 | > 100 | > 100 | 86.3 | 35.6 | > 100 | 65.1 | > 100 | > 100 | > 100
CC(C)CC(=O)OC[n+]1ccc(-c2c(COC(=O)NC(C)C)c(COC(=O)NC(C)C)c3n2CCC3)cc1 | > 100 | > 100 | > 100 | > 100 | > 100 | > 100 | > 100 | > 100 | > 100 | > 100
O=C1/C(=C/c2ccc(O)cc2)CC/C1=C\c1ccc(O)cc1 | > 100 | > 100 | > 100 | > 100 | > 100 | > 100 | > 100 | > 100 | > 100 | > 100
Oc1cc2c3c(c1)c1cc4c(cc1c[n+]3CC2)OCO4 | > 88.5 | > 50.3 | > 100 | > 55 | > 50.9 | 14.1 | > 68.8 | > 100 | > 41.8 | 28.8
CN1CCN([C@H]2C[C@H]3[C@@H]4CC=C5C[C@@H](O)CC[C@]5(C)[C@H]4CC[C@]3(C)C2=O)CC1 | > 100 | > 100 | > 100 | > 100 | > 100 | > 100 | > 100 | > 100 | > 100 | > 100
O=S1(=O)NC(=NCc2c[nH]c3ccccc23)N(c2ccccc2)c2ccncc21 | > 100 | > 100 | > 100 | > 100 | > 100 | > 100 | > 100 | > 100 | > 100 | > 100
CCCN=C1CCN(Cc2ccccc2)c2ccccc2N1 | > 100 | 63.9 | > 100 | 45 | > 100 | 32.6 | 29.6 | 95.3 | 29.3 | 26.2
N=c1n(C(=O)N2CCCC2)c2cc(Cl)ccc2n1C1=NCCN1 | > 100 | > 100 | > 100 | > 100 | > 100 | > 100 | > 100 | > 100 | > 100 | > 100
Cc1cc(=O)[nH]c(NN2C(Cl)C(=O)C2c2ccccc2O)n1 (stereo not given) | > 100 | > 100 | > 100 | > 100 | 23.3 | > 100 | > 100 | > 100 | > 65.4 | > 46.7
COc1ccc(C2c3cc4c(cc3OC(NNS(=O)(=O)c3ccc(C)cc3)C2C)OCO4)cc1 (stereo not given) | > 100 | > 100 | > 100 | > 100 | > 100 | > 100 | > 100 | > 100 | > 100 | > 100
O=c1[nH][nH]c(=O)n1Cc1ccccc1Cn1c(=O)[nH][nH]c1=O | > 100 | > 100 | > 100 | > 100 | > 100 | > 100 | > 100 | > 100 | > 100 | > 100
Oc1ccc(-c2nc(-c3cccnc3)c(-c3ccc(F)cc3)[nH]2)cc1 | 65 | 78.6 | 36.7 | 31.1 | 31.1 | 34.3 | 33.9 | 32 | 35.9 | 29.6
